One assay deals with MCH receptor (Homo sapiens, UniProt Q99705). The experiment in a line: MCH receptor [125J]-ligand binding filtration assay. As to conditions: 10 μM test compound; percent inhibition of ligand binding. Here is the method:
The activity of the compounds of this invention at the MCH receptor site, if any was measured by the procedures as set forth below. • Test Compounds The compounds of this invention were stored in a 96-well microtiter plates (1 μL, 10 mM, 100% DMSO). Each of the test sample was diluted with 249 μL of 100% DMSO (dilution 1:250). […] Blank: Assay buffer containing 0.4% DMSO were transferred to the dilution microtiter plates for blanks • Assay Procedure: The filter plates with […] of 0.5% PEI-solution/well were incubated for 2 hours at room temperature. PEI was removed by vacuum filtration just before pipetting (Univac Polyfiltronic/Whatman). The solution of the compound as prepared above (50 μL), or MCH ([…]) or Puffer/DMSO (positive control) were added to 96-well round bottom microtiter plate. Then 50 μl of [^125J]-ligand solution was added followed by 100 μl of membrane suspension. The plates were closed with the lids, and incubated for 60 min. at 25° C. The samples were transferred to GF/B filter plate. The reaction mixture was removed by vacuum filtration, washed 4× with 300 μL ice-cold washing buffer and the washing solution was removed by vacuum filtration. The rubber layer at the bottom of the plate was then removed and the filters were dried over night at room temperature. 25 μL of scintillation cocktail was added and the plates were sealed and, plate frames were added and incubated for 1 hour at room temperature. The radioactivity was then measured, settings ^125J standard, 30 sec./well.

The next assay deals with rhesus H3. The experiment in a line: GTPγS radioligand binding assay (inhibition of rhesus H3 constitutive functional activity in cell membranes). In kind it is biochemical, rhesus monkey (Macaca Mulatta). The following applies: Table 1; relative to basal level. As for the experimental part: (§1) Rhesus H3 membranes were prepared from the Flp-In T-REx 293 Cell Line (Invitrogen) stably transfected with pcDNA5/FRT/TO (Invitrogen) containing the rhesus monkey (Macaca Mulatta) 445 amino acid H3 receptor. (Genbank #AY231164). Stably transfected cultures were amplified in tissue culture flasks by standard tissue culture methods and induced to express rhesus H3 by exposure to 500 ng/ml tetracycline (Cellgro) for 24 hours. After induction, cells were dissociated from flasks utilizing Cell Stripper (Cellgro). Cells were centrifuged (1K×g, 5 min) and pellet frozen in an ethanol-dry ice bath to disrupt cell membranes. Frozen cell pellet was re-suspended in 5 mM HEPES (pH 7.4, Invitrogen) at 10 ml/1000 cm2 of harvested cells. The cell suspension was drawn through an 18 gauge needle (2-3×) followed by a 23 gauge needle (2-3×) to further disrupt cell membranes. The cell suspension was centrifuged (40K×g, 30 min). Cell membrane pellet was re-suspended in 5 mM HEPES (pH 7.4, Invitrogen) at a final protein concentration of 10 mg/ml. Rhesus H3 membranes were stored under liquid nitrogen prior to use in [3H]-Methylhistamine and GTPγS radioligand binding assays.

Assay [1] addresses rhesus (Macaca Mulatta) H3 receptor (Macaca mulatta, UniProt Q865E1). The experiment in a line: Rhesus H3 radioligand binding assay ([3H]-Methylhistamine displacement, WGA SPA beads). Details: species or system rhesus monkey (Macaca Mulatta). As for the experimental part:
as §1, with “(Genbank” for “Rhesus H3 membranes were prepared from the Flp-In T-REx 293 Cell Line (Invitrogen) stably transfected with pcDNA5/FRT/TO (Invitrogen) containing the rhesus monkey (Macaca Mulatta) 445 amino acid H3 receptor. (Genbank”
Rhesus H3 radioligand binding assay was performed using rhesus H3 receptor membranes (prepared as described above), [3H]-Methylhistamine (Perkin Elmer) and WGA SPA beads (wheat germ agglutinin scintillation proximity assay) beads (Amersham). The assay was performed in 96-well Opti-Plates (Packard). Each reaction contained 50 μl rhesus H3 membranes (20-30 μg total protein), 50 μl WGA SPA beads (0.1 μg) and 50 μl of 83 Ci/mmol [^3H]-Methylhistamine (final concentration 2 nM) and 50 μl of tested compound. The compounds of this invention and/or vehicle were diluted with binding buffer from 10 mM DMSO stocks. Assay plates were sealed with TopSeal (Perkin Elmer) and mixed on shaker (25° C., 1 hour). Assay plates were read on TopCount scintillation counter (Packard). Results were analyzed by Hill transformation and Ki values were determined by Cheng-Prusoff equation.

Setting [2] is: Table 1, [3H]-Methylhistamine 2 nM, Cheng-Prusoff.
Where [3] appears, read: Table 2, procedure of Example 42.

Counter-ions that a name gives are not always drawn.

Sequence of MCH receptor (Q99705 whole entry): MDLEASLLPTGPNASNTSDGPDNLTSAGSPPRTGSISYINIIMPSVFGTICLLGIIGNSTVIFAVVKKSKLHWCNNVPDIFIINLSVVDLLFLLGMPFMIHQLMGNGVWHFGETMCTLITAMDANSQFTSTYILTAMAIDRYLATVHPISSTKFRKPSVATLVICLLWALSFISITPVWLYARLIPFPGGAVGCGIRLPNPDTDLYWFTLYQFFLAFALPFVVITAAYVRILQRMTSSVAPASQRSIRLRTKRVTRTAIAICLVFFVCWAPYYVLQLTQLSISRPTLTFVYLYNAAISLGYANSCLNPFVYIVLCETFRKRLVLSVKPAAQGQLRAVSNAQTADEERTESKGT
Sequence of rhesus (Macaca Mulatta) H3 receptor (Q865E1 1-445): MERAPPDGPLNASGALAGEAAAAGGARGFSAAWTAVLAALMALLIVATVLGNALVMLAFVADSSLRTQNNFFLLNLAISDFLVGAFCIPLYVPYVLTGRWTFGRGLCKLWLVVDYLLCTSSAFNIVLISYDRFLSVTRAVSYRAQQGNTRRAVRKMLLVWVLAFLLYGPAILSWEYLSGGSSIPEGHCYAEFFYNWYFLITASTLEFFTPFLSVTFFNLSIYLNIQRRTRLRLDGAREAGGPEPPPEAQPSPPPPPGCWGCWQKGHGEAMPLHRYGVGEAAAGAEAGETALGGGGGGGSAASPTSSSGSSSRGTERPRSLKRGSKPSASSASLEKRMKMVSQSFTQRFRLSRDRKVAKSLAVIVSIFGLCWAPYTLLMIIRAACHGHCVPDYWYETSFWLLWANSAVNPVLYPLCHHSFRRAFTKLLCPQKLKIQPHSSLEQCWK

Broadly, the inhibition is the relative decrease from the control value, in per cent. Usually Ki stands for a dissociation constant, usually derived from enzyme kinetics or from competition with a known ligand. Turning to `Cc1cc(N2CC[C@H](N3CCC[C@@H]3C)C2)ccc1NC(=O)c1ccoc1` [Example 6, Furan-3-carboxylic acid [2-methyl-4-(2S-methyl-[1,3′S]bipyrrolidinyl-1′-yl)-phenyl]-amide trifluoro-acetate], at MCH receptor, the inhibition at 10 µM was -6.9%. In addition, the “Inverse Agonism: % inhibition of Basal GTPγS binding in Rhesus H3” value with rhesus H3 is given as −17%. Also, the Ki in assay [1] (setting [2]) and in assay [1] (setting [3]) was 1.8 nM in each case.

As to `Cc1cc(N2CCC(N3CCCC3C)C2)ccc1NC(=O)C1CCOCC1` (stereo not drawn) [Example 24, Tetrahydro-pyran-4-carboxylic acid [2-methyl-4-(2-methyl[1,3′]bipyrrolidinyl-1′-yl)-phenyl]-amide trifluoroacetate], the inhibition at 10 µM on MCH receptor worked out at 8.6%. Besides, the Ki in assay [1] (setting [3]) stood at 6.8 nM.

Turning to `CC1CCCN1C1CCN(c2ccc(NC(=O)C3C(C)(C)C3(C)C)cc2)C1` (stereo not drawn) [Example 25, 2,2,3,3-Tetramethyl-cyclopropanecarboxylic acid [4-(2-methyl-[1,3′]bipyrrolidinyl-1′-yl)-phenyl]-amide trifluoroacetate], on MCH receptor, the inhibition at 10 µM came to 15%. In assay [1] (setting [3]), the Ki was found to be 144 nM.

Consider `Cc1noc(C)c1C(=O)Nc1ccc(N2CCC(N3CCCC3C)C2)cc1` (stereo not drawn) [Example 26, 3,5-Dimethyl-isoxazole-4-carboxylic acid [4-(2-methyl-[1,3′]bipyrrolidinyl-1′-yl)-phenyl]-amide trifluoroacetate], for which the inhibition at 10 µM on MCH receptor turned out to be 9.4%. In addition, affinity in assay [1] (setting [3]) was put at a Ki of 2.1 nM.

Turning to `Cc1cc(NC(=O)C2C(C)(C)C2(C)C)ccc1N1CCC(N2CCCC2C)C1` (stereo not drawn) [Example 27, 2,2,3,3-Tetramethyl-cyclopropanecarboxylic acid [3-methyl-4-(2-methyl-[1,3′]bipyrrolidinyl-1′-yl)-phenyl]-amide trifluoroacetate], the inhibition at 10 µM at MCH receptor turned out to be 36%. Also, the Ki in assay [1] (setting [3]) came out at 65.5 nM.

Take `Cc1nc(C(=O)Nc2ccc(N3CC[C@H](N4CCC[C@@H]4C)C3)cc2C)co1` [Example 28, 2-Methyl-oxazole-4-carboxylic acid [2-methyl-4-(2(S)-methyl-[1,3′(S)]bipyrrolidinyl-1′-yl)-phenyl]-amide trifluoroacetate]: the inhibition at 10 µM at MCH receptor was determined as 7%. In addition, in assay [1] (setting [3]), the Ki was determined as 4.6 nM.

As for `CC1CCCN1C1CCN(c2ccc(NC(=O)C3C[C@@H]4CC[C@H]3C4)cc2)C1` (stereo partly drawn) [Example 29, (1S,4R)-Bicyclo[2.2.1]heptane-2-carboxylic acid [4-(2-methyl-[1,3′]bipyrrolidinyl-1′-yl)-phenyl]-amide trifluoroacetate], at MCH receptor, the inhibition at 10 µM was 11.4%. In addition, affinity in assay [1] (setting [3]) was put at a Ki of 15.7 nM.

For `CC1CCCN1C1CCN(c2ccc(NC(=O)C3CC3)c(C(F)(F)F)c2)C1` (stereo not drawn) [Example 30, Cyclopropanecarboxylic acid [4-(2-methyl-[1,3′]bipyrrolidinyl-1′-yl)-2-trifluoromethyl-phenyl]-amide trifluoroacetate], on MCH receptor, the inhibition at 10 µM was determined as 1.2%. The compound further showed an inhibitory constant (Ki) in assay [1] (setting [3]) of 14.7 nM.

Turning to `Cc1cc(C(=O)Nc2ccc(N3CCC(N4CCCC4C)C3)cc2)n[nH]1` (stereo not drawn) [Example 31, 5-Methyl-1H-pyrazole-3-carboxylic acid [4-(2-methyl-[1,3′]bipyrrolidinyl-1′-yl)-phenyl]-amide trifluoroacetate], the inhibition at 10 µM on MCH receptor was 30.5%. Also, the inhibitory constant (Ki) in assay [1] (setting [3]) came to 44.5 nM.

Turning to `Cc1cc(N2CCC(N3CCCC3C)C2)ccc1NC(=O)c1ccc(-n2ccccc2=O)o1` (stereo not drawn) [Example 32, 5-(2-Oxo-2H-pyridin-1-yl)-furan-2-carboxylic acid [2-methyl-4-(2-methyl-[1,3]bipyrrolidinyl-1′-yl)-phenyl]-amide], the inhibition at 10 µM on MCH receptor was 10.9%. In addition, in assay [1] (setting [3]), the Ki was found to be 33.3 nM.

Consider `Cc1cc(N2CCC(N3CCCC3C)C2)ccc1NC(=O)c1cn[nH]c1` (stereo not drawn) [Example 33, 1H-Pyrazole-4-carboxylic acid [2-methyl-4-(2-methyl-[1,3′]bipyrrolidinyl-1′-yl)-phenyl]-amide trifluoroacetate], for which, on MCH receptor, the inhibition at 10 µM is 9.7%. The compound also came in with a Ki in assay [1] (setting [3]) of 24.7 nM.

On to `Cc1cc(NC(=O)c2cn[nH]c2)ccc1N1CCC(N2CCCC2C)C1` (stereo not drawn) [Example 34, 1H-Pyrazole-4-carboxylic acid [3-methyl-4-(2-methyl-[1,3′]bipyrrolidinyl-1′-yl)-phenyl]-amide trifluoroacetate], for which, on MCH receptor, the inhibition at 10 µM was found to be 16.8%. This compound came in with a Ki in assay [1] (setting [3]) of 126 nM.

Consider `Cc1cc(C(=O)Nc2ccc(N3CCC(N4CCCC4C)C3)cc2C(F)(F)F)n[nH]1` (stereo not drawn) [Example 35, 5-Methyl-1H-pyrazole-3-carboxylic acid [4-(2-methyl-[1,3′]bipyrrolidinyl-1′-yl)-2-trifluoromethyl-phenyl]-amide trifluoroacetate], for which the inhibition at 10 µM at MCH receptor amounted to 23.5%. In addition, the affinity in assay [1] (setting [3]) corresponds to a Ki of 307 nM.

With `CC1CCCN1C1CCN(c2ccc(NC(=O)CC3CCCC3)cc2)C1` (stereo not drawn) [Example 36, 2-Cyclopentyl-N-[4-(2-methyl-[1,3′]bipyrrolidinyl-1′-yl)-phenyl]-acetamide trifluoroacetate], on MCH receptor, the inhibition at 10 µM stood at 0.7%. In addition, the “Inverse Agonism: % inhibition of Basal GTPγS binding in Rhesus H3” value in the assay on rhesus H3 is recorded as −33%. The figures for the inhibitory constant (Ki) in assay [1] (setting [2]) and in assay [1] (setting [3]) were 3.14 nM and 3.1 nM, respectively.

On to `Cc1cc(N2CCC(N3CCCC3C)C2)ccc1NC(=O)c1cc(-c2ccncc2)n[nH]1` (stereo not drawn) [Example 37, 5-Pyridin-4-yl-2H-pyrazole-3-carboxylic acid [2-methyl-4-(2-methyl-[1,3′]bipyrrolidinyl-1′-yl)-phenyl]-amide trifluoroacetate], for which, on MCH receptor, the inhibition at 10 µM came out at 34.4%. In assay [1] (setting [3]), the affinity corresponds to a Ki of 14.2 nM.

Take `Cc1cc(NC(=O)CC2CCCC2)ccc1N1CCC(N2CCCC2C)C1` (stereo not drawn) [Example 38, 2-Cyclopentyl-N-[3-methyl-4-(2-methyl-[1,3′]bipyrrolidinyl-1′-yl)-phenyl]-acetamide trifluoroacetate]: the inhibition at 10 µM on MCH receptor is 3.7%. The inhibitory constant (Ki) in assay [1] (setting [3]) amounted to 10.7 nM.

As for `Cc1cc(N2CC[C@H](N3CCC[C@@H]3C)C2)ccc1NC(=O)C1CCCC1` [Example 39, Cyclopentane carboxylic acid [2-methyl-4-(2(S)-methyl-[1,3′ (S)]bipyrrolidinyl-1′-yl)-phenyl]-amide trifluoroacetate], the inhibition at 10 µM on MCH receptor is -7.2%. The Ki in assay [1] (setting [3]) is 0.5 nM.

Consider `CC1CCCN1C1CCN(c2ccc(NC(=O)C3CC3)cc2)C1` (stereo not drawn) [Example 40, Cyclopropanecarboxylic acid [4-(2-methyl-[1,3′]bipyrrolidinyl-1′-yl)-phenyl]-amide trifluoroacetate], for which the inhibition at 10 µM on MCH receptor is -3.4%. In addition, the affinity in assay [1] (setting [3]) corresponds to a Ki of 9.7 nM.

Consider `Cc1cc(NC(=O)C2CC2)ccc1N1CCC(N2CCCC2C)C1` (stereo not drawn) [Example 41, Cyclopropanecarboxylic acid [3-methyl-4-(2-methyl[1,3′]bipyrrolidinyl-1′-yl)-phenyl]-amide trifluoroacetate], for which the inhibition at 10 µM on MCH receptor was -1.3%. Further, the inhibition constant (Ki) in assay [1] (setting [3]) came out at 17.7 nM.
